Patent US12091425B2 (AMGEN INC., priority 2016, dated 2024)
“And” between values parts separate entries of the source, which are not always exact repeats. Identical values can stand only once. Like-named read-outs stand apart in the source and are kept apart here. Each block holds one molecule with its values, some of them ahead of it.

Key:
[1] = not given; remark: listed apart in the source
[2] = molecular target: T1, Mcl-1/Bim interaction, recombinant human Mcl-1 (171-327) (Homo sapiens, UniProt Q07820); experiment: Cell free Mcl-1: Bim Affinity Assay (Mcl-1 HTRF); type: binding
T1 construct: made in house
Method in brief: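 Biotin-Bim(51-76) peptide, TR-FRET readout, overnight incubation; IC50 from duplicate competition curves, 4-parameter fit.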

[3] = tested on: OPM-2 human multiple myeloma cell line; experiment: Cell Viability Assay (OPM-2 10 FBS); type: cell-based; details: Homo sapiens, OPM-2, 16 h, OPM-2 cells, 16 h, CellTiter-Glo
Method in brief: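 ATP-based luminescence (CellTiter-Glo) measured after a 16 h compound treatment of OPM-2 cells seeded at 3000 cells/well in 10% FBS medium. IC50 values derived by 4-parameter logistic fitting of serial dilutions.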

[4] = cell free Mcl-1:Bim TR-FRET, recombinant human Mcl-1 (171-327)
[5] = TR-FRET, 0.1 nM Mcl-1 (171-327), 0.05 nM biotin-Bim (51-76)

T1 sequence (Q07820 171-327): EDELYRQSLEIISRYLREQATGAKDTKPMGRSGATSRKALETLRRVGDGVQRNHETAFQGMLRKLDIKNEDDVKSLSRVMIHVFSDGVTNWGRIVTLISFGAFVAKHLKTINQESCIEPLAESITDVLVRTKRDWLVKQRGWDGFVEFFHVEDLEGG

Molecule: (1S,3′R,6′R,7′S,8′E,12′R)-12′-(2-(tert-butylsulfonyl)ethyl)-6-chloro-7′-hydroxy-3,4-dihydro-2H,15′H-spiro[naphthalene-1,22′-[20]oxa[13]thia[1,14]diazatetracyclo[14.7.2.0^3,6.0^19,24]pentacosa[8,16,18,24]tetraen]-15′-one 13′,13′-dioxide or (1S,3′R,6′R,7′S,8′E,12′S)-12′-(2-(tert-butylsulfonyl)ethyl)-6-chloro-7′-hydroxy-3,4-dihydro-2H,15′H-spiro[naphthalene-1,22′-[20]oxa[13]thia [1,14]diazatetracyclo[14.7.2.0^3,6.0^19,24]pentacosa[8,16,18,24]tetraen]-15′-one 13′,13′-dioxide
ring closure, yield after HPLC (rcm bond, 16-membered ring, Hoveyda-Grubbs II (20 mol%), reduced pressure, AcOH, 2.9 mM, […]): 6.75%

IC50 [2, 4]: 2.42 nM
IC50 [3]: 9260 nM
Molecule: CC[C@@H]1CC/C=C/[C@H](O)[C@@H]2CC[C@H]2CN2C[C@@]3(CCCc4nc(Cl)ccc43)COc3ccc(cc32)C(=O)NS1(=O)=O [Example 798, (3R,6R,7S,8E,12R,22S)-2′-chloro-12-ethyl-7-hydroxy-7′,8′-dihydro-6′H,15H-spiro[20-oxa-13-thia-1,14-diazatetracyclo[14.7.2.0^3,6.0^19,24]pentacosa-8,16,18,24-tetraene-22,5′-quinolin]-15-one 13,13-dioxide]
ring closure, isolated yield ([1]; from C=CCC[C@@H](CC)S(=O)(=O)NC(=O)c1ccc2c(c1)N(C[C@@H]1CC[C@H]1[C@@H](O)/C=C/CCC)C[C@@]1(CCCc3nc(Cl)ccc31)CO2, rcm bond, 16-membered ring, Hoveyda-Grubbs II, AcOH, 2.04 mM): 39%

IC50 [2, 4]: 4 nM
Molecule: CC[C@@H]1CC/C=C/C[C@H](O)[C@@H]2CC[C@H]2CN2C[C@@]3(CCCc4cc(Cl)ccc43)COc3ccc(cc32)C(=O)NS1(=O)=O [Example 553, (1S,3′R,6′R,7′S,9′E,13′R)-6-chloro-13′-ethyl-7′-hydroxy-3,4-dihydro-2H,16′H-spiro[naphthalene-1,23′-[21]oxa[14]thia[1,15]diazatetracyclo[15.7.2.0^3,6.0^20,25]hexacosa[9,17,19,25]tetraen]-16′-one 14′,14′-dioxide]
ring closure, isolated yield ([1]; from C=CCC[C@@H](CC)S(=O)(=O)NC(=O)c1ccc2c(c1)N(C[C@@H]1CC[C@H]1[C@@H](O)CC=C)C[C@@]1(CCCc3cc(Cl)ccc31)CO2, rcm bond, 17-membered ring, Hoveyda-Grubbs II (10 mol%), DCM, 1.4 mM, 45.0 °C, 6.0 h): 38%

IC50 [2, 4]: 0.46 nM
IC50 [3]: 1180 nM
Molecule: C[C@@H]1C/C=C/[C@H](O)[C@@H]2CC[C@H]2CN2C[C@@]3(CCCc4cc(Cl)ccc43)COc3ccc(cc32)C(=O)NS1(=O)=O [Example 758, (1S,3′R,6′R,7′S,8′E,11′R)-6-chloro-7′-hydroxy-11′-methyl-3,4-dihydro-2H,14′H-spiro[naphthalene-1,21′-[19]oxa[12]thia[1,13]diazatetracyclo[13.7.2.0^3,6.0^18,23]tetracosa[8,15,17,23]tetraen]-14′-one 12′,12′-dioxide]
ring closure, isolated yield ([1]; from C=CC[C@@H](C)S(=O)(=O)NC(=O)c1ccc2c(c1)N(C[C@@H]1CC[C@H]1[C@@H](O)C=C)C[C@@]1(CCCc3cc(Cl)ccc31)CO2, rcm bond, 15-membered ring, Hoveyda-Grubbs II, DCM, 2.65 mM, 7.0 h): 23.8%

Molecule: O=C1NS(=O)(=O)[C@H]2CCC[C@@H](C=C[C@H](O)[C@@H]3CC[C@H]3CN3C[C@@]4(CCCc5cc(Cl)ccc54)COc4ccc1cc43)C2 (single isomer, unassigned)
ring closure, yield after HPLC (from NS(=O)(=O)[C@H]1CCC[C@@H](/C=C/[C@H](O)[C@@H]2CC[C@H]2CN2C[C@@]3(CCCc4cc(Cl)ccc43)COc3ccc(C(=O)O)cc32)C1, amide bond, 16-membered ring, EDC/DMAP, DCM, 2.0 mM, 16.0 h): 4.7%

IC50 [2, 5]: 32.8 nM
IC50 [3]: 21400 nM
Molecule: O=C1NS(=O)(=O)CCCC/C=C/[C@@H](O)[C@@H]2CC[C@H]2CN2C[C@@]3(CCCc4cc(Cl)ccc43)COc3ccc1cc32 [Example 227, (1S,3′R,6′R,7′R,8′E)-6-chloro-7′-hydroxy-3,4-dihydro-2H,16′H-spiro[naphthalene-1,23′-[21]oxa[14]thia[1,15]diazatetracyclo[15.7.2.0^3,6.0^20,25]hexacosa[8,17,19,25]tetraen]-16′-one 14′,14′-dioxide]
ring closure, isolated yield ([1]; from C=CCCCCS(=O)(=O)NC(=O)c1ccc2c(c1)N(C[C@@H]1CC[C@H]1[C@H](O)/C=C/CCC)C[C@@]1(CCCc3cc(Cl)ccc31)CO2, rcm bond, 17-membered ring, Hoveyda-Grubbs II, AcOH, 5.2 mM): 59%

Molecule: (1S,3′R,6′R,11′S)-6-chloro-11′-methyl-3,4-dihydro-2H,7′,14′H-spiro[naphthalene-1,21′-[19]oxa[12]thia[1,13]diazatetracyclo[13.7.2.0^3,6.0^18,23]tetracosa [15,17,23]triene]-7′,14′-dione 12′,12′-dioxide
ring closure, yield after HPLC (rcm bond, 15-membered ring): 4.8%

IC50 [2, 5]: 10.8 nM
Molecule: O=C1NS(=O)(=O)CC/C=C/[C@@H](O)[C@@H]2CC[C@H]2CN2C[C@@]3(CCCc4cc(Cl)ccc43)COc3ccc1cc32 [Example 221, (1S,3′R,6′R,7′R,8′E)-6-chloro-7′-hydroxy-3,4-dihydro-2H,14′H-spiro[naphthalene-1,21′-[19]oxa[12]thia[1,13]diazatetracyclo[13.7.2.0^3,6.0^18,23]tetracosa [8,15,17,23]tetraen]-14′-one 12′,12′-dioxide]
ring closure, isolated yield ([1]; from C=CCCS(=O)(=O)NC(=O)c1ccc2c(c1)N(C[C@@H]1CC[C@H]1[C@H](O)/C=C/CCC)C[C@@]1(CCCc3cc(Cl)ccc31)CO2, rcm bond, 15-membered ring, Hoveyda-Grubbs II (portionwise), AcOH, 5.2 mM): 48%

IC50 [2, 5]: 0.63 nM
IC50 [3]: 172 nM
Molecule: C[C@H]1[C@@H]2/C=C/[C@H](O)[C@@H]3CC[C@H]3CN3C[C@@]4(CCCc5cc(Cl)ccc54)COc4ccc(cc43)C(=O)NS(=O)(=O)[C@@H]1CCC2 [Example 112, (1S,3′R,6′R,7′S,8′E,10′S,14′R,28′S)-6-chloro-7′-hydroxy-28′-methyl-3,4-dihydro-2H,17′H-spiro[naphthalene-1,24′-[22]oxa[15]thia[1,16]diazapentacyclo[16.7.2.1^10,14.0^3,6.0^21,26]octacosa[8,18,20,26]tetraen]-17′-one 15′,15′-dioxide]
ring closure, isolated yield ([1]; from C[C@H]1[C@H](/C=C/[C@H](O)[C@@H]2CC[C@H]2CN2C[C@@]3(CCCc4cc(Cl)ccc43)COc3ccc(C(=O)O)cc32)CCC[C@H]1S(N)(=O)=O, amide bond, 16-membered ring, EDC/DMAP, DCM, 2.0 mM, 16.0 h): 21%

IC50 [2, 4]: 6.21 nM
IC50 [3]: 23300 nM
Molecule: C[C@@H]1CC/C=C/[C@H](O)[C@@H]2CC[C@H]2CN2C[C@@]3(CCCc4nc(Cl)ccc43)COc3ccc(cc32)C(=O)NS1(=O)=O [Example 791, (3R,6R,7S,8E,12R,22S)-2′-chloro-7-hydroxy-12-methyl-7′,8′-dihydro-6′H,15H-spiro[20-oxa-13-thia-1,14-diazatetracyclo [14.7.2.0^3,6.0^19,24]pentacosa-8,16,18,24-tetraene-22,5′-quinolin]-15-one 13,13-dioxide]
ring closure, isolated yield ([1]; from C=CCC[C@@H](C)S(=O)(=O)NC(=O)c1ccc2c(c1)N(C[C@@H]1CC[C@H]1[C@@H](O)/C=C/CCC)C[C@@]1(CCCc3nc(Cl)ccc31)CO2, rcm bond, 16-membered ring, Hoveyda-Grubbs II, AcOH, 1.98 mM): 40%

Molecule: C[C@H]1CS(=O)(=O)NC(=O)c2ccc3c(c2)N(C[C@@H]2CC[C@H]2[C@@H](O)C=C[C@H]1CO[Si](c1ccccc1)(c1ccccc1)C(C)(C)C)C[C@@]1(CCCc2cc(Cl)ccc21)CO3 (single isomer, unassigned)
ring closure, isolated yield ([1]; from C[C@@H](CS(N)(=O)=O)[C@@H](/C=C/[C@H](O)[C@@H]1CC[C@H]1CN1C[C@@]2(CCCc3cc(Cl)ccc32)COc2ccc(C(=O)O)cc21)CO[Si](c1ccccc1)(c1ccccc1)C(C)(C)C, amide bond, 16-membered ring, EDC/DMAP, DCM, 2.0 mM, 16.0 h, 3 steps): 10.8%

Molecule: (1S,3′R,6′R,7′S,9′Z,12′S)-6-chloro-7′-hydroxy-12′-(trifluoromethyl)-3,4-dihydro-2H,15′H-spiro[naphthalene-1,22′-[20]oxa[13]thia[1,14]diazatetracyclo[14.7.2.0^3,6.0^19,24]pentacosa [9,16,18,24]tetraen]-15′-one 13′,13′-dioxide and [...] (1S,3′R,6′R,7′S,9′E,12′S)-6-chloro-7′-hydroxy-12′-(trifluoromethyl)-3,4-dihydro-2H,15′H-spiro[naphthalene-1,22′-[20]oxa[13]thia[1,14]diazatetracyclo[14.7.2.0^3,6.0^19,24]pentacosa [9,16,18,24]tetraen]-15′-one 13′,13′-dioxide and (1S,3′R,6′R,7′S,9′E,12′R)-6-chloro-7′-hydroxy-12′-(trifluoromethyl)-3,4-dihydro-2H,15′H-spiro[naphthalene-1,22′-[20]oxa[13]thia[1,14]diazatetracyclo[14.7.2.0^3,6.0^19,24]pentacosa [9,16,18,24]tetraen]-15′-one 13′,13′-dioxide
ring closure, isolated yield ([1]; rcm bond, 16-membered ring, Hoveyda-Grubbs II, toluene, 2.4 mM, 101.0 °C): 63%

Molecule: C[C@]12CC[C@@H]1CN1C[C@@]3(CCCc4cc(Cl)ccc43)COc3ccc(cc31)C(=O)NS(=O)(=O)CC/C=C/C[C@@H]2O
ring closure, isolated yield ([1]; from C=CCCS(=O)(=O)NC(=O)c1ccc2c(c1)N(C[C@@H]1CC[C@@]1(C)[C@@H](O)CC=C)C[C@@]1(CCCc3cc(Cl)ccc31)CO2, rcm bond, 16-membered ring, 1.5 h): 4.76%

Molecule: C=CC[C@@H](O)[C@H](C)S(=O)(=O)NC(=O)c1ccc2c(c1)N(C[C@@H]1CC[C@H]1[C@@H](O)/C=C/CCC)C[C@@]1(CCCc3cc(Cl)ccc31)CO2
ring closure, isolated yield ([1]; the molecule shown is the open-chain precursor, rcm bond, 16-membered ring, Hoveyda-Grubbs II (50 mol%), AcOH, 8.6 mM, 60.0 °C): 24.5%

Molecule: COC[C@@]1(C)CC=C[C@H](O)[C@@H]2CC[C@H]2CN2C[C@@]3(CCCc4cc(Cl)ccc43)COc3ccc(cc32)C(=O)NS1(=O)=O (single isomer, unassigned)
ring closure, isolated yield ([1]; from COC[C@@](C)(C/C=C/[C@H](O)[C@@H]1CC[C@H]1CN1C[C@@]2(CCCc3cc(Cl)ccc32)COc2ccc(C(=O)O)cc21)S(N)(=O)=O, amide bond, 15-membered ring): 8.8% and 7.5%
